According to patent US20230119539A1, “TRACELESS LINKERS AND PROTEIN-CONJUGATES THEREOF” (Regeneron Pharmaceuticals, Inc., priority 2019, published 2023):
Where two headings read alike, the source gives them in different places.

Experiments:
[1] = Solubility of linker-payloads and quenched linker-payloads; format: physicochemical; settings: water; quenched linker-payloads, Table 6a; read-out: Solubility
Source text: The quenched linker-payloads were water soluble and used for the pH stability test.

[2] = pH stability of quenched linker-payloads in buffers (LCMS); format: physicochemical; settings: RT
Description: To a solution of compound (payloads or quenched-linker-payloads) in DMSO (0.2-1.0 mg/mL) was added corresponding PBS buffer (V(buffer)/V(DMSO)=5) to give test samples (pH 3, 4, 5, 6, 7.4, and 8.5, or other special pH). The test samples were incubated at RT for at least 3 days and monitored by LCMS (i.e., at 1 hr, 2 hr, 4 hr, 8 hr, and 1 day, 2 day, 3 day, 4 day, 5 day, 6 day, 7 day, 8 day, 9 day, and 21 day time points). Initial concentrations of the samples were 0.2 mg/mL (DMSO/buffer, v/v=1/5). […] The payloads and quenched linker-payloads were mostly stable at pH >5.0, 6.0, 7.4 and 8.5 after 3 days. In more acidic conditions, such as pH 1.0, the payloads or linker-payloads were easily cleaved to release D*-OH.

[3] = Solubility of quenched linker-payloads; settings: Table 3c, linker-payloads quenched with taurine-PEG4-azide or CD-N3
[4] = biological target: T1, human macrophage scavenger receptor 1 (MSR1) (human, UniProt P21757 1-451); assay: cell-based or functional assay
T1 sequence (looked up): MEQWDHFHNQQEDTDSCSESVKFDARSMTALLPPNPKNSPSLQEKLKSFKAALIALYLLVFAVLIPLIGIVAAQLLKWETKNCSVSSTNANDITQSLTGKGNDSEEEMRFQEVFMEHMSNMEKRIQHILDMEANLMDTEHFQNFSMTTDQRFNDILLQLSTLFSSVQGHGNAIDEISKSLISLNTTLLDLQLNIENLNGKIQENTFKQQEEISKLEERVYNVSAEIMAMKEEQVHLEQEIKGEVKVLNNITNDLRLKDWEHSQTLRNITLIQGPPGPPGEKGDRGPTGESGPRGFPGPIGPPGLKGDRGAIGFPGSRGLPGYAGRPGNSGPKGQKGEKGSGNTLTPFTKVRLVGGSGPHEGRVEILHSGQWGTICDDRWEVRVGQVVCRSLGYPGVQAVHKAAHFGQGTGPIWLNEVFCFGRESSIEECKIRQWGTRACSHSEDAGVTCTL

[5] = biological target: T1, human macrophage scavenger receptor 1 …; assay: cell-based or functional assay; remark: listed apart in the source
GR = biological target: T2, GR (Homo sapiens, UniProt P04150); assay: GR luciferase reporter assay in HEK293/GRLuc cells; format: cell-based
T2 construct: host or cells: HEK293 (HEK293/GRLuc; HEK293/GRLuc/MSR1 additionally transduced with human MSR1)
T2 sequence (P04150 524-758 limits assumed): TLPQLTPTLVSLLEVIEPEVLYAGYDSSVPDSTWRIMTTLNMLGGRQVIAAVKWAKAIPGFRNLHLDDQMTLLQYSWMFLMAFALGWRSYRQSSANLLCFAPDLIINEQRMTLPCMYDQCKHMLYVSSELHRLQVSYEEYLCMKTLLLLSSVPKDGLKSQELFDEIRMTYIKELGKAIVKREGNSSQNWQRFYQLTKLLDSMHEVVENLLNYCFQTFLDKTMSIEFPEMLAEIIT
Description: Activity of anti-MSR1 ncADCs were tested using an MSR1 ADC steroid responsive luciferase reporter assay. To generate the assay cell line, HEK293 cells were co-transfected with the pBind-GR (Promega, Cat #E158A) and pGL4.35 [Luc2P/9xGAL4UAS/Hygro] (Promega, Cat #E137A) vectors. The pBind-GR vector expresses a fusion protein consisting of the GR ligand binding and the yeast Gal4DNA-binding domain, which binds to the Gal4 upstream activation sequence (UAS) in the luciferase expression vector, that can induce luciferase expression following GR agonist binding. The cells were selected for at least 2 weeks in G418+hygromycin and the resulting cell line is referred to as HEK293/GRLuc. HEK293/GRLuc cells were then transduced with a human MSR1 lentiviral expression vector and 48 hours later cells were sorted for MSR1 positive cells. The resulting cell line is referred to as HEK293/GRLuc/MSR1.
Three-fold serial dilutions of ncADCs in assay buffer were added to the cells for 48 hours. The last well in the plate served as blank control containing only the assay media and was plotted as a continuation of the 3-fold serial dilution. Luciferase activity was determined using the One-Glo™ reagent (Promega, Cat #E6130). Relative light units (RLUs) were measured on an Envision luminometer (PerkinElmer) and EC50 values were determined using a four-parameter logistic equation over a 10-point dose response curve (GraphPad Prism). The signal to noise (S/N) was determined by taking the ratio of the highest RLU on the dose response curve to the RLU in the untreated wells.
To test the activity of GR agonist payloads disclosed herein, a cell-based GR responsive luciferase reporter assay was developed as described above.
Three-fold serial dilutions of free payloads were prepared in 100% DMSO, transferred to fresh assay media, and added to the cells for 48 hours. […] The last well in the plate served as blank control containing only the assay media and 0.2% DMSO (untreated well) and was plotted as a continuation of the 3-fold serial dilution. Luciferase activity was determined using the One-Glo™ reagent (Promega, Cat #E6130). Relative light units (RLUs) were measured on an Envision luminometer (PerkinElmer) and EC50 values were determined using a four-parameter logistic equation over a 10-point dose response curve (GraphPad Prism). The signal to noise (S/N) was determined by taking the ratio of the highest RLU on the dose response curve to the RLU in the untreated wells.

CC(C)[C@H](NC(=O)CCOCCOCCOCCOCCNC(=O)CCC(=O)N1Cc2ccccc2-c2c(nnn2CCOCCOCCOCCOCCC(=O)NCCS(=O)(=O)O)-c2ccccc21)C(=O)N[C@@H](CCCNC(N)=O)C(=O)Nc1ccc(COC(=O)NCC(=O)NCOCC(=O)[C@@]2(O)[C@H](C)C[C@H]3[C@@H]4CCC5=CC(=O)C=C[C@]5(C)[C@@]4(F)[C@@H](O)C[C@@]32C)cc1 [Q1L1-PI]
Solubility [1]: > 1000 µg/mL
percentage of the remaining compound ([2]; DMSO, 1 Day): 100%
percentage of the remaining compound ([2]; DMSO, 2 Day): 100%
percentage of the remaining compound ([2]; DMSO, 3 Day): 100%
percentage of the remaining compound ([2]; DMSO, 4 Day): 100%
percentage of the remaining compound ([2]; DMSO, 7 Day): 100%
percentage of the remaining compound ([2]; DMSO, 1 hr): 100%
percentage of the remaining compound ([2]; DMSO, 4 hr): 100%
percentage of the remaining compound ([2]; pH 3.0, 1 Day): 100%
percentage of the remaining compound ([2]; pH 3.0, 2 Day): 100%
percentage of the remaining compound ([2]; pH 3.0, 3 Day): 96%
percentage of the remaining compound ([2]; pH 3.0, 4 Day): 95%
percentage of the remaining compound ([2]; pH 3.0, 7 Day): 91%
percentage of the remaining compound ([2]; pH 3.0, 1 hr): 100%
percentage of the remaining compound ([2]; pH 3.0, 4 hr): 100%
percentage of the remaining compound ([2]; pH 4.0, 1 Day): 100%
percentage of the remaining compound ([2]; pH 4.0, 2 Day): 100%
percentage of the remaining compound ([2]; pH 4.0, 3 Day): 100%
percentage of the remaining compound ([2]; pH 4.0, 4 Day): 100%
percentage of the remaining compound ([2]; pH 4.0, 7 Day): 100%
percentage of the remaining compound ([2]; pH 4.0, 1 hr): 100%
percentage of the remaining compound ([2]; pH 4.0, 4 hr): 100%
percentage of the remaining compound ([2]; pH 5.0, 1 Day): 100%
percentage of the remaining compound ([2]; pH 5.0, 2 Day): 100%
percentage of the remaining compound ([2]; pH 5.0, 3 Day): 100%
percentage of the remaining compound ([2]; pH 5.0, 4 Day): 100%
percentage of the remaining compound ([2]; pH 5.0, 7 Day): 100%
percentage of the remaining compound ([2]; pH 5.0, 1 hr): 100%
percentage of the remaining compound ([2]; pH 5.0, 4 hr): 100%
percentage of the remaining compound ([2]; pH 7.4, 1 Day): 100%
percentage of the remaining compound ([2]; pH 7.4, 2 Day): 100%
percentage of the remaining compound ([2]; pH 7.4, 3 Day): 100%
percentage of the remaining compound ([2]; pH 7.4, 4 Day): 100%
percentage of the remaining compound ([2]; pH 7.4, 7 Day): 100%
percentage of the remaining compound ([2]; pH 7.4, 1 hr): 100%
percentage of the remaining compound ([2]; pH 7.4, 4 hr): 100%

CCCC1O[C@@H]2C[C@H]3[C@@H]4C[C@H](F)C5=CC(=O)C=C[C@]5(C)[C@@]4(F)[C@@H](O)C[C@]3(C)[C@]2(C(=O)COCNC(=O)CNC(=O)CNC(=O)OCc2ccc(NC(=O)[C@H](CCCNC(N)=O)NC(=O)[C@@H](NC(=O)CCOCCOCCOCCOCCNC(=O)CCC(=O)N3Cc4ccccc4-c4c(nnn4CCOCCOCCOCCOCCC(=O)NCCS(=O)(=O)O)-c4ccccc43)C(C)C)cc2)O1 (stereo partly drawn) [Q1L1-PIII-4]
Solubility [3]: >1000 µg/mL

B1: H1H21234N-N297Q-L1-PII-1 (antibody, V domains shown)
VH: QVQLQESGPGLVKPSETLSLTCTVTGGSISRNYWSWIRQPPGKGLEWIGYIYYSGSIDYNPSLKSRVTISVDTSKNQFSLKLSSMTAADTAVYYCARDRWNWKYGMDVWGQGTTVIVSS
VL: EIVLTQSPGTLSLSPGERATLSCRASQTVRNNYLAWYHQKPGQAPRLLIYGASSRATGIPDRFSGSGSGTDFTLTISRLEPEDFTVYYCHQYGNSPWTFGQGTKMEIKR
modifications: heavy-chain constant region (not part of this entry): N297Q (EU); linker-payload L1-PII-1 (DIBAC-suc-PEG4-vcPAB-PII-1, payload budesonide) clicked onto azido-PEG3-amine on glutamines; DAR 4
EC50, GR luciferase reporter activity in HEK293/GRLuc/MSR1 cells [4]: 0.84 nM
S/N, HEK293/GRLuc/MSR1 cells [4]: 222
EC50, GR luciferase reporter activity in HEK293/GRLuc/MSR1 cells [5]: 0.609 nM
S/N (highest RLU / RLU in untreated wells), HEK293/GRLuc/MSR1 cells [5]: 128
EC50 (GR; Table 8, ncADCs, 48 hours): > 100 nM
S/N (GR; Table 8, ncADCs, highest RLU / RLU of untreated wells): 5.4
EC50 (GR; Table 11, ADCs): > 100 nM
S/N (GR; Table 11, ADCs): 4.5
